Usually EC50 stands for the concentration giving half of the maximal effect.

Where a name gives a salt, the structure may show the parent alone.

A short description of the experiment: In vitro inhibition of calcium phosphate crystallization in human plasma (spectrophotometric). It counts as biochemical. Particulars: 0-100 μM, 1.5 mM phosphate, 12.5 mM calcium, pH 7.4, 30 min, rt, read-out: Relative Potency (EC50, inhibition of calcium phosphate crystallization). The method, then: The in vitro efficacy of the IP4-4,6 substituted derivatives (e.g., Compounds 1 to 53) of the invention on the inhibition of calcium phosphate crystallization in human plasma samples was evaluated according to a spectrophotometric assay previously described in the art (Ferrer M, et al., Sci Rep 2017; 7:6858, doi:10.1038/s41598-017-07203-x).
A 96-well plate was employed. Plasma was spiked (1 volume of the IP4-4,6 substituted derivatives of the invention per 19 volumes of plasma) with increasing concentrations of the derivatives in the range of 0-100 μM. Plasma was then centrifuged at 10,000 g at rt and subsequently mixed with a mixture of 5 mM hydrogen phosphate and 41.67 mM calcium to attain final concentrations of 1.5 mM phosphate and 12.5 mM calcium, respectively. All reagent solutions were filtered, and pH adjusted to 7.4.
Crystallization of calcium phosphate was monitored spectrophotometrically for 30 min at rt by measuring the increments in absorbance at 550 nm using the Biotek Powerwave XS Microplate spectrophotometer (BioTek Instruments, Inc., Winooski, VT, US). The plate was incubated at rt in an orbital shaker and absorbance measured every 3 min.
Plasma crystallization was assessed based on slope measurement in the linear range between 6 and 24 min from plots of increase in absorbance versus logarithm of time. The efficacy of different myo-inositol phosphates derivatives in preventing in vitro formation of calcium phosphate crystals was assessed in human plasma samples using the slopes obtained between 6- and 24-min. Inhibition of crystallization was measured by comparing the slopes of the control sample (blank plasma) with those of samples containing the inhibitor as shown below: […]
On to `CCCNC(=O)NCCCCCOC1C(OP(=O)(O)O)C(OCCCCCNC(=O)NCCC)C(OP(=O)(O)O)C(OP(=O)(O)O)C1OP(=O)(O)O` (stereo not drawn) [Compound 30, 4,6-O-bis(5-(3-propylureido)pentyl)-myo-inositol-1,2,3,5-tetrakis(phosphate) octasodium salt], for which the 50% effective concentration (EC50) was at most 5 µM.
In the case of `O=P(O)(O)OC1C(OCCCCCCCCCCO)C(OP(=O)(O)O)C(OP(=O)(O)O)C(OP(=O)(O)O)C1OCCCCCCCCCCO` (stereo not drawn) [Compound 7, 4,6-O-bis(10-hydroxydecyl)-myo-inositol-1,2,3,5-tetrakis(phosphate) octasodium salt], the concentration for a half-maximal effect (EC50) was above 10 µM.
Under `O=P(O)(O)OC1C(OCCCCCn2cccn2)C(OP(=O)(O)O)C(OP(=O)(O)O)C(OP(=O)(O)O)C1OCCCCCn1cccn1` (stereo not drawn) [Compound 16, 4,6-O-bis(5-(1H-pyrazol-1-yl)pentyl)-myo-inositol-1,2,3,5-tetrakis(phosphate) octasodium salt] stands at most 5 µM; under “4,6-O-bis(5-methoxypentyl)-myo-inositol-1,2,3,5-tetrakis(phosphate) octasodium salt [Compound 9]”, at most 5 µM; under “4,6-O-bis(10-carboxydecyl)-myo-inositol-1,2,3,5-tetrakis(phosphate) decasodium salt [Compound 19]”, above 10 µM.
Under `COCCCCCOC1C(OP(O)(O)=S)C(OCCCCCOC)C(OP(O)(O)=S)C(OP(O)(O)=S)C1OP(O)(O)=S` (stereo not drawn) [Compound 51, 4,6-O-bis(5-Methoxypentyl)-myo-inositol-1,2,3,5-tetrakis(thiophosphate) octasodium salt] stands above 10 µM; under “4,6-O-bis(4-amino-4-oxobutyl)-myo-inositol-1,2,3,5-tetrakis(phosphate) octasodium salt [Compound 26]”, at most 5 µM.
Then `COCc1cn(CCCCOC2C(OP(=O)(O)O)C(OCCCCn3cc(COC)nn3)C(OP(=O)(O)O)C(OP(=O)(O)O)C2OP(=O)(O)O)nn1` (stereo not drawn) [Compound 37, 4,6-O-bis(4-(4-(methoxymethyl)-1H-1,2,3-triazol-1-yl)butyl)-myo-inositol-1,2,3,5-tetrakis(phosphate) octasodium salt], with 5 to 10 µM.
Consider `COC(=O)NCCCCCOC1C(OP(=O)(O)O)C(OCCCCCNC(=O)OC)C(OP(=O)(O)O)C(OP(=O)(O)O)C1OP(=O)(O)O` (stereo not drawn) [Compound 25, 4,6-O-bis(5-((methoxycarbonyl)amino)pentyl)-myo-inositol-1,2,3,5-tetrakis(phosphate) octasodium salt], for which the EC50 was at most 5 µM.
Under `O=C(O)CCn1cc(CO[C@@H]2[C@@H](OP(=O)(O)O)[C@H](OCc3cn(CCC(=O)O)nn3)[C@@H](OP(=O)(O)O)[C@@H](OP(=O)(O)O)[C@H]2OP(=O)(O)O)nn1` [Compound 31, 4,6-O-bis((1-(2-carboxyethyl)-1H-1,2,3-triazol-4-yl)methyl)-myo-inositol-1,2,3,5-tetrakis(phosphate) decasodium salt] stands at most 5 µM; under `NCCCOC1C(OP(=O)(O)O)C(OCCCN)C(OP(=O)(O)O)C(OP(=O)(O)O)C1OP(=O)(O)O` (stereo not drawn) [Compound 13, 4,6-O-bis(3-aminopropyl)-myo-inositol-1,2,3,5-tetrakis(phosphate) octasodium salt], 5 to 10 µM; under “4,6-O-bis(6,6,6-trifluorohexyl)-myo-inositol-1,2,3,5-tetrakis(phosphate) octasodium salt [Compound 23]”, above 10 µM.
Turning to `O=P(O)(O)OC1C(OCCCc2cccc(C(F)(F)F)c2)C(OP(=O)(O)O)C(OP(=O)(O)O)C(OP(=O)(O)O)C1OCCCc1cccc(C(F)(F)F)c1` (stereo not drawn) [Compound 44, 4,6-O-bis(3-(3-(trifluoromethyl)phenyl)propyl)-myo-inositol-1,2,3,5-tetrakis(phosphate) octasodium salt], the EC50 was above 10 µM.
Then “4,6-O-bis(5-carboxypentyl)-myo-inositol-1,2,3,5-tetrakis(phosphate) decasodium salt [Compound 18]”, with at most 5 µM; and `CCCCCOC1C(OP(O)(O)=S)C(OCCCCC)C(OP(O)(O)=S)C(OP(O)(O)=S)C1OP(O)(O)=S` (stereo not drawn) [Compound 50, 4,6-O-dipentyl-myo-inositol-1,2,3,5-tetrakis(thiophosphate) octasodium salt], with above 10 µM.
Under “4,6-O-dipropyl-myo-inositol-1,2,3,5-tetrakis(phosphate) octasodium salt [Compound 4]” stands at most 5 µM; under “4,6-O-bis(3-(4-(methoxymethyl)-1H-1,2,3-triazol-1-yl)propyl)-myo-inositol-1,2,3,5-tetrakis(phosphate) octasodium salt [Compound 36]”, 5 to 10 µM.
Then `COCCCCCCCCCOC1C(OP(=O)(O)O)C(OCCCCCCCCCOC)C(OP(=O)(O)O)C(OP(=O)(O)O)C1OP(=O)(O)O` (stereo not drawn) [Compound 12, 4,6-O-bis(9-methoxynonyl)-myo-inositol-1,2,3,5-tetrakis(phosphate) octasodium salt], with above 10 µM.
Regarding “4,6-O-bis(19-methoxynonadec-10-yn-1-yl)-myo-inositol-1,2,3,5-tetrakis(phosphate) octasodium salt [Compound 20]”, the EC50 was at most 5 µM.
Under “4,6-O-bis(3-methoxypropyl)-myo-inositol-1,2,3,5-tetrakis(phosphate) octasodium salt [Compound 10]” stands at most 5 µM.
For “4,6-O-bis(3-(3-phenylureido)propyl)-myo-inositol-1,2,3,5-tetrakis(phosphate) octasodium salt [Compound 46]”, the EC50 fell in the range of 5 to 10 µM.
Then “4,6-O-bis((1-(3-methoxypropyl)-1H-1,2,3-triazol-4-yl)methyl)-myo-inositol-1,2,3,5-tetrakis(phosphate) octasodium salt [Compound 32]”, with at most 5 µM; and `O=C(NCCCCCOC1C(OP(=O)(O)O)C(OCCCCCNC(=O)c2ccccc2)C(OP(=O)(O)O)C(OP(=O)(O)O)C1OP(=O)(O)O)c1ccccc1` (stereo not drawn) [Compound 48, 4,6-O-bis(5-benzamidopentyl)-myo-inositol-1,2,3,5-tetrakis(phosphate) octasodium salt], with above 10 µM.
Then `C#CCOC1C(OP(=O)(O)O)C(OCC#C)C(OP(=O)(O)O)C(OP(=O)(O)O)C1OP(=O)(O)O` (stereo not drawn) [Compound 53, 4,6-O-Dipropargyl-myo-inositol-1,2,3,5-tetrakis(phosphate) octasodium salt], with at most 5 µM; and `O=C(NCCCOC1C(OP(=O)(O)O)C(OCCCNC(=O)NC2CCCC2)C(OP(=O)(O)O)C(OP(=O)(O)O)C1OP(=O)(O)O)NC1CCCC1` (stereo not drawn) [Compound 47, 4,6-O-bis(3-(3-cyclopentylureido)propyl)-myo-inositol-1,2,3,5-tetrakis(phosphate) octasodium salt], with at most 5 µM; and “4,6-O-bis(4-methylpentyl)-myo-inositol-1,2,3,5-tetrakis(phosphate) octasodium salt [Compound 21]”, with above 10 µM.
Under `NCCCCCCCCCCO[C@@H]1[C@@H](OP(=O)(O)O)[C@H](OCCCCCCCCCCN)[C@@H](OP(=O)(O)O)[C@@H](OP(=O)(O)O)[C@H]1OP(=O)(O)O` [Compound 15, 4,6-O-bis(10-aminodecyl)-myo-inositol-1,2,3,5-tetrakis(phosphate) octasodium salt] stands above 10 µM.
Turning to `COc1ccc(CCCOC2C(OP(=O)(O)O)C(OCCCc3ccc(OC)cc3)C(OP(=O)(O)O)C(OP(=O)(O)O)C2OP(=O)(O)O)cc1` (stereo not drawn) [Compound 43, 4,6-O-bis(3-(4-methoxyphenyl)propyl)-myo-inositol-1,2,3,5-tetrakis(phosphate) octasodium salt], the half-maximal effective concentration (EC50) lay in the range of 5 to 10 µM.
On to `COCCCCCCCOC1C(OP(=O)(O)O)C(OCCCCCCCOC)C(OP(=O)(O)O)C(OP(=O)(O)O)C1OP(=O)(O)O` (stereo not drawn) [Compound 11, 4,6-O-bis(7-methoxyheptyl)-myo-inositol-1,2,3,5-tetrakis(phosphate) octasodium salt], for which the EC50 was above 10 µM.
Then “4,6-O-bis(2-(4-acetylpiperazin-1-yl)ethyl)-myo-inositol-1,2,3,5-tetrakis(phosphate) octasodium salt [Compound 34]”, with 5 to 10 µM; and “4,6-O-bis(3-((methoxycarbonyl)amino)propyl)-myo-inositol-1,2,3,5-tetrakis(phosphate) octasodium salt [Compound 24]”, with above 10 µM.
Then `COCCCCCCn1cc(COC2C(OP(=O)(O)O)C(OCc3cn(CCCCCCOC)nn3)C(OP(=O)(O)O)C(OP(=O)(O)O)C2OP(=O)(O)O)nn1` (stereo not drawn) [Compound 33, 4,6-O-bis((1-(6-methoxyhexyl)-1H-1,2,3-triazol-4-yl)methyl)-myo-inositol-1,2,3,5-tetrakis(phosphate) octasodium salt], with 5 to 10 µM.
Then `CCCCCCCCCCOC1C(OP(=O)(O)O)C(OCCCCCCCCCC)C(OP(=O)(O)O)C(OP(=O)(O)O)C1OP(=O)(O)O` (stereo not drawn) [Compound 2, 4,6-O-didecyl-myo-inositol-1,2,3,5-tetrakis(phosphate) octasodium salt], with above 10 µM.

Source of the values: patent US20260337212A1, “IP4-4,6 SUBSTITUTED DERIVATIVE COMPOUNDS FOR USE IN THE TREATMENT, INHIBITION OF PROGRESSION, AND PREVENTION OF ECTOPIC CALCIFICATION” (SANIFIT THERAPEUTICS, S.A., priority 2022, published 2026).
